Reference: patent US20100286149A1, “NOVEL BENZAMIDE DERIVATIVES USEFUL AS POTASSIUM CHANNEL MODULATORS” (priority 2007, published 2010)

Key:
[1] = biological target: T1, BK channels heterologously expressed in Xenopus laevis oocytes (Homo sapiens, UniProt Q12791); assay: BK channel opening activity, two-electrode voltage clamp in Xenopus laevis oocytes; format: cell-based
T1 construct: expressed in transfected cells; host or cells: Xenopus laevis oocytes
Experimental: In this example the BK channel opening activity of Compound 12 (i.e. N-[5-Chloro-2-(1H-tetrazol-5-yl)-phenyl]-4-dipropylsulfamoyl-benzamide) is determined using BK channels heterologously expressed in Xenopus laevis oocytes.
The electrical current through the BK channel was measured using conventional two-electrode voltage clamp. BK currents were activated by repeating ramp protocols. In brief, the membrane potential was continuously changed from −120 mV to +120 mV within a 2 s period. The threshold for BK activation is approximately +30 mV under control conditions. Compounds were applied for 100 s during which the ramp protocol was repeated 10 times with 10 s intervals. In between the ramp protocols the membrane potential was clamped at −80 mV. The first three compound applications were control blanks where the current level is allowed to stabilize.
In order to evaluate the ability of the compounds to shift the BK activation curve towards lower membrane potentials, the BK current was transformed into conductance by using Ohm's law g=I/(Ememb−Erev), where g is the conductance, I is the current, Ememb is the membrane potential and Erev is the reversal potential. The extracellular solution for these experiments contained 2.5 mM K+ and the intracellular K+ concentration of an oocyte was estimated to be 100 mM. Under those conditions, Nernst equation predicts a reversal potential of Erev=−93.2 mV. The control conductance level at a membrane potential of +100 mV was calculated, and the compound effect was evaluated as the potential difference, ΔV, to the membrane potential at which the same conductance level was obtained in the presence of compound.
The concentration response curve for this potential difference was fitted to the sigmoidal logistic equation: ΔV=ΔVmax/(1+(EC50/[compound])^n), where ΔVmax represents the maximal left shift of the BK activation curve, EC50 is the concentration causing a half maximal response, and n is the slope coefficient.

T1 sequence (Q12791 whole entry): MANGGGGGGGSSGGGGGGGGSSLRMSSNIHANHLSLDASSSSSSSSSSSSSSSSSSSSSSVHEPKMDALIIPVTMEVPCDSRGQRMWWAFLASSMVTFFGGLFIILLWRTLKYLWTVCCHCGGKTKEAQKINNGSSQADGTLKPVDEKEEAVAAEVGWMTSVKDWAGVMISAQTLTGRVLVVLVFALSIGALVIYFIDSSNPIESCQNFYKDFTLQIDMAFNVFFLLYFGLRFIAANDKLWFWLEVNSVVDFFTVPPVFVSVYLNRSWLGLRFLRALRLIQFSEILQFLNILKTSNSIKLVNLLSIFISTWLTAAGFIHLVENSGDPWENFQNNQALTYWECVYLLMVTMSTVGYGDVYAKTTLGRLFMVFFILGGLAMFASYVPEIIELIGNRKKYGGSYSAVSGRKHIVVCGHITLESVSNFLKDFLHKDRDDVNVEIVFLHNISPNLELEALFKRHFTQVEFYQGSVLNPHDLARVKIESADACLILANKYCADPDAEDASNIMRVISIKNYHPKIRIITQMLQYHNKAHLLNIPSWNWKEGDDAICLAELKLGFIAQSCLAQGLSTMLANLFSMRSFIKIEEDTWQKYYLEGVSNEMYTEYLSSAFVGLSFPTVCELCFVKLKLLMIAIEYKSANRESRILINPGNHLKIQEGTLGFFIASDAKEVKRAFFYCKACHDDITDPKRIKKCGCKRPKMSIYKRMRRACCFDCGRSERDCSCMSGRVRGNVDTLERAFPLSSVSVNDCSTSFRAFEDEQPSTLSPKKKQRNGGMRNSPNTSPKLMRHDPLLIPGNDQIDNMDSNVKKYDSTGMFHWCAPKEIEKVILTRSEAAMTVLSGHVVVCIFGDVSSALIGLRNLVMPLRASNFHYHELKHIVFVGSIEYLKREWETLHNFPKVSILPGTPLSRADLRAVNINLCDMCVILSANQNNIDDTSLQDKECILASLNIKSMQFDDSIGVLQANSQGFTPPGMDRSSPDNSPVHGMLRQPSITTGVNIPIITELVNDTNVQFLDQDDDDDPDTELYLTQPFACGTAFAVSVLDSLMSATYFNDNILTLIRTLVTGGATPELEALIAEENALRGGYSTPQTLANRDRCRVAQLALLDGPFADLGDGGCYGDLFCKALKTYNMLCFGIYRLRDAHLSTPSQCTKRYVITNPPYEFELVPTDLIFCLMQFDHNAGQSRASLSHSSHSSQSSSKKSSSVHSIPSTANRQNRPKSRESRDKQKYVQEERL

| SMILES | ΔVmax, maximal left shift of the BK activation curve ([1]; BKCa channels expressed in Xenopus oocytes, 0.01-31.6 μM, sigmoidal logistic fit) [mV] | EC50 ([1]; BKCa channels expressed in Xenopus oocytes, ramp −120 to +120 mV, 0.01-31.6 μM, ΔV at control conductance level of +100 mV, sigmoidal logistic fit, read-out: EC50 for the left-shift of the BK activation curve (ΔV)) [nM] | BK current level at depolarizing potentials ([1]; increasing concentrations (0.01-31.6 μM) applied, 100 s each, ramp protocol) | melting point [°C] |
| --- | --- | --- | --- | --- |
| CCCN(CCC)S(=O)(=O)c1ccc(C(=O)Nc2cc(Cl)ccc2-c2nnn[nH]2)cc1 [Compound 12, N-[5-Chloro-2-(1H-tetrazol-5-yl)-phenyl]-4-dipropylsulfamoyl-benzamide] | −110 | 1300 | marked increase in the current level at depolarizing potentials | – |
| O=C(Nc1cc(Cl)ccc1-c1nnn[nH]1)c1cc(C(F)(F)F)cc(C(F)(F)F)c1 [Compound 4, N-[5-Chloro-2-(1H-tetrazol-5-yl)-phenyl]-3,5-bis-trifluoromethyl-benzamide] | – | – | – | 247 to 249 |
| O=C(Nc1cc(Cl)ccc1-c1nnn[nH]1)c1ccc2ccccc2c1O [Compound 8, 1-Hydroxy-naphthalene-2-carboxylic acid [5-chloro-2-(1H-tetrazol-5-yl)-phenyl]-amide] | – | – | – | 221 to 225 |
